Laboratory results as given in patent US20210177814A1, “USE OF GUANABENZ OR DERIVATES THEREOF FOR THE TREATMENT OF TYPE I IFN-DEPENDENT PATHOLOGIES” (INSERM (Institut National de la Santé et de la Recherche …, priority 2018, published 2021).

Target: T1, hTLR3 (Homo sapiens, UniProt O15455)
T1 construct: expressed in transfected cells; host or cells: HEK-Blue (HEK 293) hTLR3 reporter cells
T1 sequence (O15455 24-904): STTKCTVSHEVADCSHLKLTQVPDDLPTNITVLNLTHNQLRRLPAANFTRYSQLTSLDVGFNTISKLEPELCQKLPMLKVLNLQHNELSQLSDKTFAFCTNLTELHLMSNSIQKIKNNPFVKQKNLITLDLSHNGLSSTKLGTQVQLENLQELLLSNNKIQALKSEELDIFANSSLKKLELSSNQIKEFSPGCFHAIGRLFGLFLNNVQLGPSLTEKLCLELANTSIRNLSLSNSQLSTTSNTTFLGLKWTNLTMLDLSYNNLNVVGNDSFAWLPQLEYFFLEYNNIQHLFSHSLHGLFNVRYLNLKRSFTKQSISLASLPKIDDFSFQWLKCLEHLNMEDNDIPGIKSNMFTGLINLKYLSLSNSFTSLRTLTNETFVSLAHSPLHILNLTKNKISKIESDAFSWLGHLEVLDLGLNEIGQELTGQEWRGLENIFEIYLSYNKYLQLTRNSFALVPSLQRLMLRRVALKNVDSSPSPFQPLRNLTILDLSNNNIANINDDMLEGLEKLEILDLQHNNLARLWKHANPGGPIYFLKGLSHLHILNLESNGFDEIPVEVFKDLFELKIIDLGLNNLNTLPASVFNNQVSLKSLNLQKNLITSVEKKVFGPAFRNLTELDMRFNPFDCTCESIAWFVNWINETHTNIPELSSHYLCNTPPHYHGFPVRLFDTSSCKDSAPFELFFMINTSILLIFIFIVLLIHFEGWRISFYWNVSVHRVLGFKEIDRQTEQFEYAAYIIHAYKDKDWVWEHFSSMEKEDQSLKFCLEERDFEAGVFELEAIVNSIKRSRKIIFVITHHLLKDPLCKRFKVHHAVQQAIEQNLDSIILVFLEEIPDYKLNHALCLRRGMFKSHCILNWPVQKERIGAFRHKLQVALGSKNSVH
Experiment: HEK-Blue hTLR3 SEAP reporter assay
Type: cell-based
Conditions: 10 μg/mL poly I:C LMW, GBZ 50 μM
Protocol: FIG. 1: Guanabenz inhibits TLR3 and TLR9 activation in mouse Flt3-L DCs and human blood pDCs. A) Sorted bone marrow derived Flt3L-DCs were activated for 6 h with 10 μg/mL poly I:C LMW (TLR3 in DC1) or 1 μM ODN 1585 (TLR9 in pDCs). GBZ was added at 50 μM and inhibited IFN-β and Interleukin-6 (IL-6) production in activated cells. B) hTLR4, hTLR3, hTLR9 and hTLR7 expressed in the reporter HEK-Blue™ cells are inhibited by GBZ. TLR-expressing HEK-Blue™ cells were respectively activated with 100 ng/mL LPS, 10 μg/mL poly I:C LMW, 2.5 μM ODN 2006 or 5 μg/mL imiquimod, respectively. GBZ was added at 50 μM. TLR activity was measured indirectly through SEAP activity as absorbance at 405 nm. […] Protein concentration of IFN-α and TNF-α secreted were measured at the indicated time points or at 16 h. […]
Given the efficiency of GBZ on mouse TLR3 and TLR9, we turned to human TLRs, in order to extend the relevance of our observations. GBZ-mediated inhibition was first evaluated on NF-kB signaling by monitoring secreted alkaline phosphatase (SEAP) reporter levels in HEK-293 cells expressing TLR3, TLR4, TLR7, TLR9 (FIG. 1B). […] The functionality of the TLR9 transduction pathway was next evaluated by using phospho-flow detection of 40S ribosomal protein S6 (rpS6) phosphorylation, a well characterized early signaling event down-stream of TLR activation by LPS or viruses.

## NC(N)=N/N=C/c1c(Cl)cccc1Cl [GBZ, 2-(2,6-dichlorobenzylidene)-hydrazinecarboximidamide]
  TLR3-dependent activation of the SEAP reporter: inhibited
